{
  "source": "patent US20090053168A1",
  "about": "“TREATMENTS OF B-CELL PROLIFERATIVE DISORDERS” (priority 2007, published 2009)",
  "key": {"OPM2 cells": {"tested_on": "OPM2 cells", "assay": "Anti-proliferation assay (ATPLite, 72 h), OPM2", "type": "cell-based, human", "conditions": "for synergy score: in combination with CGS-21680, OPM-8"}, "[1]": {"tested_on": "mantle cell lymphoma cell line JVM-13", "assay": "Anti-proliferation assay (ATPLite, 72 h), JVM-13", "type": "cell-based, human", "method": "(§1) All of the cell lines were cultured in RPMI-1640 media supplemented with 10% FBS except OCI Ly10 cells (IMDM media supplemented with 20% human serum). The ANBL-6 cell line culture media also contained 10 ng/ml IL-6. MM.1S, MM.1R, SU-DHL6, Karpas 422, and OCI ly10 cells were provided by the Dana Farber Cancer Institute. ANBL-6 cells were provided by Bob Orlowsli (M.D. Anderson Cancer Research Center). H929, RPMI-8226, GA-10, Farage, Mino, JVM-13, Pfeiffer, Toledo, and Kusami-1 cells were from ATCC (Cat #'s CCL-155, CRL-9068, CRL-2392 CRL-2630, CRL-3000, CRL-3003, CRL-2632, CRL-2631, and CRL-2724 respectively). MOLP-8, OPM2, EJM, and KSM-12-PE cells were from DSMZ.\n(§2) Compounds were prepared in DMSO at 1000× the highest desired concentration. Master plates were generated consisting of serially diluted compounds in 2- or 3-fold dilutions in 384-well format. For single agent dose response curves, the master plates consisted of 9 individual compounds at 12 concentrations in 2- or 3-fold dilutions. For combination matrices, master plates consisted of individual compounds at 6 or 9 concentrations at 2- or 3-fold dilutions.\n(§3) The average untreated well value (avg. untreated wells) is the arithmetic mean of 40 wells from the same assay plate treated with vehicle alone. Negative inhibition values result from local variations in treated wells as compared to untreated wells.\n(§4) The uncertainty of each fitted parameter was estimated from the range over which the change in reduced chi-squared was less than one, or less than minimum reduced chi-squared if that minimum exceeded one, to allow for underestimated σI errors.\n(§5) Single agent curve data were used to define a dilution series for each compound to, be used for combination screening in a 6×6 matrix format. […] For compounds with no detectable single agent activity, a dilution factor of 4 was used, starting from the highest achievable concentration.\n(§6) The Loewe additivity model was used to quantify combination effects. Combinations were ranked initially by Additivity Excess Volume, which is defined as ADD Volume=ΣCX, CY(Idata−ILoewe). where ILoewe(CX,CY) is the inhibition that satisfies (CX/ECX)+(CY/ECY)=1, and ECX,Y are the effective concentrations at ILoewe for the single agent curves. A “Synergy Score” was also used, where the Synergy Score S=log fX log fY ΣIdata (Idata−ILoewe), summed over all non-single-agent concentration pairs, and where log fX,Y is the natural logarithm of the dilution factors used for each single agent."}, "MM.1S cells": {"tested_on": "MM.1S cells", "assay": "Anti-proliferation assay (ATPLite, 72 h), MM.1S", "conditions": "for IC50: 2-fold dilutions; for synergy score: in combination with CGS-21680, MM.1S"}, "[2]": {"tested_on": "mantle cell lymphoma cell line Mino", "assay": "Anti-proliferation assay (ATPLite, 72 h), Mino", "type": "cell-based, human", "method": "as §1, §2, §3, §4, §5, §6"}, "[3]": {"tested_on": "GA-10 (Burkitt's lymphoma) cells", "assay": "Anti-proliferation assay (ATPLite, 72 h), GA-10", "type": "cell-based", "conditions": "x dexamethasone"}, "H929 cells": {"tested_on": "H929 cells", "assay": "Anti-proliferation assay (ATPLite, 72 h), H929", "type": "cell-based"}, "[4]": {"tested_on": "Farage (non-Hodgkin's B cell lymphoma) cells", "assay": "Anti-proliferation assay (ATPLite, 72 h), Farage", "type": "cell-based", "conditions": "x dexamethasone"}, "RPMI-8226 cells": {"tested_on": "RPMI-8226 cells", "assay": "Anti-proliferation assay (ATPLite, 72 h), RPMI-8226", "type": "cell-based"}, "Karpas 422 DLBCL cells": {"tested_on": "Karpas 422 DLBCL cells", "assay": "Anti-proliferation assay (ATPLite, 72 h), Karpas 422", "type": "cell-based", "conditions": "in combination with CGS-21680"}, "EJM cells": {"tested_on": "EJM cells", "assay": "Anti-proliferation assay (ATPLite, 72 h), EJM", "type": "cell-based", "conditions": "in combination with CGS-21680"}, "SU-DHL6 DLBCL cells": {"tested_on": "SU-DHL6 DLBCL cells", "assay": "Anti-proliferation assay (ATPLite, 72 h), SU-DHL6", "type": "cell-based", "conditions": "in combination with CGS-21680"}, "MOLP-8 cells": {"tested_on": "MOLP-8 cells", "assay": "Anti-proliferation assay (ATPLite, 72 h), MOLP-8", "type": "cell-based", "conditions": "in combination with CGS-21680"}, "ANBL-6 cells": {"tested_on": "ANBL-6 cells", "assay": "Anti-proliferation assay (ATPLite, 72 h), ANBL-6", "type": "cell-based", "conditions": "in combination with CGS-21680"}, "OCI-ly10 DLBCL cells": {"tested_on": "OCI-ly10 DLBCL cells", "assay": "Anti-proliferation assay (ATPLite, 72 h), OCI-ly10", "type": "cell-based", "conditions": "in combination with CGS-21680"}, "KSM-12-PE cells": {"tested_on": "KSM-12-PE cells", "assay": "Anti-proliferation assay (ATPLite, 72 h), KSM-12-PE", "type": "cell-based", "conditions": "in combination with CGS-21680; KSM-12-PE"}, "[5]": {"conditions": "Homo sapiens, MM1.S, read-out: percent inhibition of cell proliferation"}, "[6]": {"conditions": "combination with dexamethasone, Loewe-based Synergy Score, 72 h"}},
  "note": "Several values for one entry are separate records, joined by “and”; a condition that tells them apart may be missing. Identical values can stand only once. Like-named read-outs stand apart in the source and are kept apart here.",
  "data": [
    {"smiles": "CCCCC#Cc1nc(N)c2ncn([C@@H]3O[C@H](C(=O)NCC)[C@@H](O)[C@H]3O)c2n1", "note": "[HE-NECA, hexynyladenosine-5′-N-ethylcarboxamide]", "values": [
      {"measurement": "percent inhibition of cell proliferation", "setting": "OPM2 cells; HE-NECA 2.5 nM alone", "value": 1, "unit": "%"},
      {"measurement": "percent inhibition of cell proliferation", "setting": "OPM2 cells; HE-NECA 5 nM alone", "value": 2.6, "unit": "%"},
      {"measurement": "percent inhibition of cell proliferation", "setting": "OPM2 cells; HE-NECA 10 nM alone", "value": 0.4, "unit": "%"},
      {"measurement": "percent inhibition of cell proliferation", "setting": "OPM2 cells; HE-NECA 20 nM alone", "value": 4.8, "unit": "%"},
      {"measurement": "percent inhibition of cell proliferation", "setting": "[1]; HE-NECA 2.5 nM alone", "value": "−0.9", "unit": "%"},
      {"measurement": "percent inhibition of cell proliferation", "setting": "[1]; HE-NECA 5 nM alone", "value": "−1.5", "unit": "%"},
      {"measurement": "percent inhibition of cell proliferation", "setting": "[1]; HE-NECA 10 nM alone", "value": 2.1, "unit": "%"},
      {"measurement": "percent inhibition of cell proliferation", "setting": "[1]; HE-NECA 20 nM alone", "value": "−9.7", "unit": "%"},
      {"measurement": "Synergy score with dexamethasone, MM.1S", "setting": "MM.1S cells", "value": 8.94},
      {"measurement": "percent inhibition of cell proliferation", "setting": "MM.1S cells", "value": "46% and 31%"},
      {"measurement": "percent inhibition of cell proliferation", "setting": "MM.1S cells; HE-NECA 0.181 nM alone", "value": "−0.91", "unit": "%"},
      {"measurement": "percent inhibition of cell proliferation", "setting": "MM.1S cells; HE-NECA 0.363 nM alone", "value": 9.2, "unit": "%"},
      {"measurement": "percent inhibition of cell proliferation", "setting": "MM.1S cells; HE-NECA 0.725 nM alone", "value": 11, "unit": "%"},
      {"measurement": "percent inhibition of cell proliferation", "setting": "MM.1S cells; HE-NECA 2.9 nM alone", "value": 35, "unit": "%"},
      {"measurement": "percent inhibition of cell proliferation", "setting": "MM.1S cells; HE-NECA 5.8 nM alone", "value": 42, "unit": "%"},
      {"measurement": "percent inhibition of cell proliferation", "setting": "MM.1S cells; HE-NECA 23.2 nM alone", "value": 51, "unit": "%"},
      {"measurement": "activity and synergy in antiproliferation assays", "setting": "MM.1S cells; RPMI-8226, H929, MM.1S and MM.1R MM cell lines", "value": "active and synergistic"},
      {"measurement": "IC50", "setting": "MM.1S cells; read-out: IC50 (+IL-6), MM.1S cells grown in presence of 10 ng/ml IL-6", "value": 0.88, "unit": "nM"},
      {"measurement": "IC50", "setting": "MM.1S cells; read-out: IC50 (no IL-6), MM.1S cells grown in absence of IL-6", "value": 6.5, "unit": "nM"},
      {"measurement": "percent inhibition of cell proliferation", "setting": "[2]; HE-NECA 2.5 nM alone", "value": "7.9% and 4.1%"},
      {"measurement": "percent inhibition of cell proliferation", "setting": "[2]; HE-NECA 5 nM alone", "value": 12, "unit": "%"},
      {"measurement": "percent inhibition of cell proliferation", "setting": "[2]; HE-NECA 10 nM alone", "value": "10% and 4.7%"},
      {"measurement": "synergy score", "setting": "[3]", "value": 1.64},
      {"measurement": "Synergy score with dexamethasone, H929", "setting": "H929 cells", "value": 7.62},
      {"measurement": "synergy score", "setting": "[4]", "value": 3.6},
      {"measurement": "Synergy score with dexamethasone, RPMI-8226", "setting": "RPMI-8226 cells", "value": 17.7}
    ]},
    {"smiles": "COc1cc2c(cc1OC)-c1cc(=Nc3c(C)cc(C)cc3C)n(C)c(=O)n1CC2", "note": "[Trequinsin, 2,3,6,7-tetrahydro-9,10-dimethoxy-3-methyl-2-((2,4,6-trimethylphenyl)imino)-4H-pyrimido(6,1-a)isoquinolin-4-one]", "values": [
      {"measurement": "synergy score", "setting": "Karpas 422 DLBCL cells", "value": 2.11},
      {"measurement": "synergy score", "setting": "OPM2 cells", "value": 4.74},
      {"measurement": "inhibition at 0.00462 µM", "setting": "MM.1S cells; [5]", "value": 10, "unit": "%"},
      {"measurement": "inhibition at 0.0139 µM", "setting": "MM.1S cells; [5]", "value": 1.4, "unit": "%"},
      {"measurement": "inhibition at 0.0416 µM", "setting": "MM.1S cells; [5]", "value": 5.5, "unit": "%"},
      {"measurement": "inhibition at 0.374 µM", "setting": "MM.1S cells; [5]", "value": -1.6, "unit": "%"},
      {"measurement": "inhibition at 1.12 µM", "setting": "MM.1S cells; [5]", "value": -6.1, "unit": "%"},
      {"measurement": "inhibition at 3.37 µM", "setting": "MM.1S cells; [5]", "value": 11, "unit": "%"},
      {"measurement": "inhibition at 10.1 µM", "setting": "MM.1S cells; [5]", "value": 33, "unit": "%"},
      {"measurement": "Synergy score with dexamethasone, MM.1S", "setting": "MM.1S cells; [6]", "value": 3.21},
      {"measurement": "synergy score", "setting": "MM.1S cells", "value": 6.71},
      {"measurement": "synergy score", "setting": "EJM cells", "value": 4.81},
      {"measurement": "synergy score", "setting": "SU-DHL6 DLBCL cells", "value": 0.92},
      {"measurement": "synergy score", "setting": "MOLP-8 cells", "value": 4.7},
      {"measurement": "synergy score", "setting": "ANBL-6 cells", "value": 4.55},
      {"measurement": "synergy score", "setting": "OCI-ly10 DLBCL cells", "value": 1.64},
      {"measurement": "Synergy score with dexamethasone, H929", "setting": "H929 cells; [6]", "value": 2.68},
      {"measurement": "synergy score", "setting": "KSM-12-PE cells", "value": 2.44},
      {"measurement": "Synergy score with dexamethasone, RPMI-8226", "setting": "RPMI-8226 cells; [6]", "value": 5.76}
    ]},
    {"smiles": "O=C(Nc1c(Cl)cncc1Cl)c1ccc(OC(F)F)c(OCC2CC2)c1", "note": "[roflumilast]", "values": [
      {"measurement": "synergy score", "setting": "Karpas 422 DLBCL cells", "value": 3.38},
      {"measurement": "synergy score", "setting": "OPM2 cells", "value": 0.29},
      {"measurement": "synergy score", "setting": "MM.1S cells", "value": 2.54},
      {"measurement": "synergy score", "setting": "EJM cells", "value": 1.06},
      {"measurement": "synergy score", "setting": "SU-DHL6 DLBCL cells", "value": 0.93},
      {"measurement": "synergy score", "setting": "MOLP-8 cells", "value": 3.44},
      {"measurement": "synergy score", "setting": "ANBL-6 cells", "value": 3.73},
      {"measurement": "synergy score", "setting": "OCI-ly10 DLBCL cells", "value": 3.32},
      {"measurement": "synergy score", "setting": "KSM-12-PE cells", "value": 0.27}
    ]}
  ]
}
